Measured values taken from patent US20090252802A1, “Compositions Including Relatively Water Insoluble/Unwettable Drugs And Methods For Using Same” (priority 2006, published 2009).

Legend:
[1] = at doses 10-fold greater than the dose required to produce a 50% reduction in one or more symptoms; cited from earlier work
[2] = Contact angles by tilting plane method (sessile drop on tilted surface); format: physicochemical; details: sessile drop of water or buffered aqueous medium (50 mM sodium phosphate, pH 6.8) on tilted surface of the substance
Description: The tilting plane method of measuring contact angles involves slowly tilting a surface or plane of a substance the contact angle of which is to be determined until a sessile drop on the plane begins to move in the downhill direction. At that time the angle between the plane and the downhill tangent of the drop at the plane is the advancing contact angle, and the angle between the plane and the uphill tangent of the drop at the plane is the receding contact angle. A procedure for determining the contact angles of a therapeutic component is as follows. A small batch of Compound III weighing approximately 30 g is micronized in a ball mill for three days using 5-mm stainless steel balls. The resulting particles have an average diameter of 8 μm. A 200-mg sample of the micronized Compound III is compressed into a wafer 12 mm in diameter and 2 mm thick using a Carver press. The wafer is then glued on to a plastic board. Separately, a 10 milliliter aqueous solution is prepared containing 50 mM sodium phosphate buffer at pH 6.8. A drop of a blue food dye is added to the solution to aid visualization. A 40 μL drop of the blue aqueous solution is placed on top of the Compound III wafer on a plastic board resting at a horizontal position. The plastic board and the wafer are then slowly tilted from their horizontal position in front of a continuous shooting camera. The process stops after the blue aqueous drop has run down the wafer. The images that show the shapes of the liquid drop just prior to it starting to run down the wafer are analyzed and the contact angles measured. Alternatively, both the advancing and receding contact angles can be measured using a KSV instrument (model CAM 200) with a tilt stage. The instrument is fully computer controlled, and it captures the video image and performs full analysis of the advancing and receding contact angles.

[3] = Solubility in water at 25° C.; format: physicochemical; details: for solubility: water; for solubility in water: unit given as mg
[4] = Dissolution in aqueous solution buffered to pH 6.8 over time (FIG. 1, FIG. 2); format: physicochemical; details: 100 mg sample with excipients in buffer pH 6.8, FIG. 1 curves
Experimental: Samples A and B are in the form of particles having an average diameter of about 150 microns. Samples C and D are in the form of particles having an average diameter of about 10 microns.
An aqueous solution buffered with a buffer to a pH of 6.8 is provided. A quantity of a mixture containing conventional pharmaceutically acceptable excipients is provided. In addition, a quantity of sodium dodecyl sulfate is provided.
A mixture of Sample A (100 mg) and excipients is formed and is placed in 900 ml of the aqueous solution.
A mixture of Sample C (100 mg) and excipients is formed and is placed in another 900 ml of the aqueous solution. Test samples of each of the aqueous solutions are taken at various times after each of the mixtures containing Compound III (Samples A and C) is placed in the aqueous solution. Each of these test samples is analyzed for Compound III concentration. Using these test results over a period of 240 minutes, relationships between the percentage of Sample A and Sample C dissolved and time are developed. These tests are run a total of 3 times (n=3).
Each of Samples B and D is tested in a substantially similar way. However, when testing Samples B and […], 1% based on weight of the mixture of Sample and excipient mixture, of sodium dodecyl sulfate is included in the mixture. Each of these tests is run a total of 3 times. […]

Compound	sedation [1]	advancing contact angle [2]	receding contact angle [2]	solubility [3]	solubility in water [3]	rate of dissolution (comparison in words) [4]
Cc1cccc([C@H](C)c2c[nH]cn2)c1C [dexmeditomidine]	completely sedating	–	–	–	–	–
O=C1c2ccccc2CCC1Cc1c[nH]c(=S)[nH]1 (centres unmarked) [Compound I]	–	greater than 90 °	greater than 45 °	< 500 µg/mL	–	–
Cc1cccc([C@@H](C)c2c[nH]c(=S)[nH]2)c1C [Compound IV]	–	greater than 90 °	greater than 45 °	–	less than 0.5 mg	–
S=c1[nH]cc(CC2CC=CC2)[nH]1 [Compound III]	–	116 °	73 °	< 500 µg/mL	–	relatively reduced rate of dissolution in water
O=c1[nH]cc(CC2Cc3ccc(F)cc3C2)[nH]1 (centres unmarked) [Compound II]	–	greater than 90 °	greater than 45 °	–	less than 0.5 mg	–
